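Five concentrations, 48 hours, 96-well plates. Abbreviation: GI50, concentration required for 50% inhibition of growth. TGI marks complete inhibition of growth.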
Legend:
Test in all cases: inhibition of tumour cell growth, NCI panel, 48 h
[1] = tested on: MCF7 breast
[2] = tested on: U251 CNS
[3] = tested on: HCT-15 colon
[4] = tested on: COLO 205 colon
[5] = tested on: OVCAR-4 ovarian
[6] = tested on: RPMI-8226 leukemia
[7] = tested on: NCI-H522 lung
[8] = tested on: SK-OV-3 ovarian
[9] = tested on: T-47D breast
[10] = tested on: SNB-75 CNS

Row | Compound | TGI [1] [µM] | TGI [2] [µM] | TGI [3] [µM] | TGI [4] [µM] | TGI [5] [µM] | TGI [6] [µM] | TGI [7] [µM] | TGI [8] [µM] | TGI [9] [µM] | TGI [10] [µM] | GI50 [1] [µM] | GI50 [2] [µM] | GI50 [3] [µM] | GI50 [4] [µM] | GI50 [6] [µM] | GI50 [7] [µM] | GI50 [8] [µM] | GI50 [9] [µM] | GI50 [5] [µM] | GI50 [10] [µM]
1 | CCOC(=O)Nn1c(C)nnc1-c1ccccc1 | > 100 | > 100 | > 100 | > 100 | > 100 | > 100 | > 100 | > 100 | > 100 | – | – | – | – | – | – | – | – | – | – | –
2 | O=C1c2ccccc2C2C1N2C(=O)C(F)(F)F (centres undefined) | – | > 100 | > 100 | > 100 | > 100 | > 100 | > 100 | > 100 | – | > 100 | – | – | – | – | – | – | – | – | – | –
3 | CCOc1cc2c(cc1O)/C(=N\OC)C[C@@H]1[C@@H]2CC[C@]2(C)[C@@H](O)CC[C@@H]12 | > 37.6 | 22.8 | 16.1 | 40.8 | > 100 | – | 0.518 | > 100 | – | 0.21 | – | – | – | – | – | – | – | – | – | –
4 | FC(F)(F)c1cc(Cl)cnc1N/N=C(/c1ccccc1)c1ccccn1 | 17 | 41.3 | > 100 | > 100 | 29.4 | > 100 | 8.31 | 9.9 | – | 3.33 | – | – | – | – | – | – | – | – | – | –
5 | O=c1[nH][nH]c(=O)n1Cc1ccccc1Cn1c(=O)[nH][nH]c1=O | – | > 100 | > 100 | > 100 | – | > 100 | > 100 | > 100 | > 100 | > 100 | – | – | – | – | – | – | – | – | – | –
6 | CNC(=O)OCC1=C(COC(=O)NC)C(C)N(c2ccc(OC)cc2)C1 (centres undefined) | > 100 | > 100 | > 100 | > 100 | > 100 | > 100 | – | > 100 | > 100 | > 100 | – | – | – | – | – | – | – | – | – | –
7 | O=C(O)CN(CC(=O)O)C1CCCCC1N(CC(=O)O)CC(=O)NCCN=C=S (centres undefined) | > 100 | > 100 | > 100 | – | – | > 100 | > 100 | > 100 | > 100 | – | – | – | – | – | – | – | – | – | – | –
8 | Cc1cc(=O)[nH]c(NN2C(Cl)C(=O)C2c2ccccc2O)n1 (centres undefined) | > 100 | > 100 | > 100 | > 76.8 | > 100 | > 63.2 | – | > 100 | > 100 | > 76.2 | – | – | – | – | – | – | – | – | – | –
9 | CC1C=C(CCCCCCCCCCCC[C@@H](O)[C@@H]2CC[C@@H]([C@@H]3CC[C@@H](C(O)CCCCCCCCCCCCC4=C[C@H](C)OC4=O)O3)O2)C(=O)O1 (some centres undefined) | – | > 100 | > 100 | > 100 | – | > 84.5 | 39.6 | > 100 | – | > 100 | – | – | – | – | – | – | – | – | – | –
10 | Cc1ccsc1/C=N/Nc1ncccn1 | > 100 | > 100 | > 100 | > 100 | > 100 | > 100 | – | > 100 | > 100 | > 100 | – | – | – | – | – | – | – | – | – | –
11 | Oc1ccc(-c2nc(-c3cccnc3)c(-c3ccc(F)cc3)[nH]2)cc1 | 32.7 | 32.9 | 64.5 | 36.8 | 52.7 | 39.8 | – | 57.1 | 43.8 | 35 | – | – | – | – | – | – | – | – | – | –
12 | [N-]=[N+]=Nc1cc(=O)oc2ccccc12 | – | > 100 | > 100 | > 100 | > 100 | > 100 | > 100 | > 100 | – | > 100 | – | – | – | – | – | – | – | – | – | –
13 | N#CN=C(N(Cc1ccccc1)Cc1ccccc1)N(Cc1ccccc1)Cc1ccccc1 | – | – | > 100 | > 100 | – | > 100 | > 100 | > 100 | – | > 100 | – | – | – | – | – | – | – | – | – | –
14 | O=C1OCC(O)=C1C(c1ccc(Cl)cc1)c1cc2c(cc1O)OCO2 (centres undefined) | > 100 | – | > 100 | > 100 | > 100 | – | – | > 100 | – | > 100 | – | – | – | – | – | – | – | – | – | –
15 | Nc1cccc2cc(Cl)cnc12 | – | > 100 | > 100 | > 100 | > 100 | > 100 | > 100 | > 100 | > 100 | > 100 | – | – | – | – | – | – | – | – | – | –
16 | CCCNC1=C2CC(C)CC(OC)[C@@H](O)[C@H](C)/C=C(\C)C(OC(N)=O)C(OC)/C=C\C=C(/C)C(=O)NC(=CC1=O)C2=O (some centres undefined) | 28.5 | > 100 | 28.1 | 12.7 | > 100 | 42.2 | 28.6 | > 100 | 35 | – | 0.0525 | 29.5 | 0.46 | 0.0141 | 0.463 | 0.361 | 0.0747 | 1.15 | – | –
17 | CC(N)Cc1ccc(C(=O)Cl)cc1 (centres undefined) | – | > 100 | > 100 | > 100 | > 100 | > 100 | > 100 | > 100 | – | > 100 | – | – | – | – | – | – | – | – | – | –
18 | O=C([O-])CC(=O)[O-].O=C([O-])CC(=O)[O-].[K+].[Pd+2] | – | > 100 | > 100 | > 100 | > 100 | > 100 | > 100 | – | – | > 100 | – | > 100 | > 100 | > 100 | > 100 | > 100 | – | – | > 100 | > 100
19 | CCN(CC)CCC(=O)Nc1ccc2c(c1)C(=O)c1ccc(NC(=O)CCN(CC)CC)cc1C2=O | – | 21.2 | 14.8 | 14.4 | 18.9 | 19.9 | 23.5 | 21.7 | – | 31.9 | – | – | – | – | – | – | – | – | – | –
20 | COc1ccc2c(=O)c(O)c(-c3ccc(OC)c(OC)c3)oc2c1 | > 100 | > 100 | > 100 | > 100 | 0.599 | > 100 | 46 | > 100 | > 100 | – | – | – | – | – | – | – | – | – | – | –
21 | CCOC(=O)N1CCC2(CC1)C[C@](C)(C(C)=O)C(C)O2 (some centres undefined) | > 100 | > 100 | > 100 | > 100 | > 100 | > 100 | > 100 | > 100 | – | – | – | – | – | – | – | – | – | – | – | –
22 | COc1nc(N)c(C(=O)CCl)c(=O)n1C | – | 29.9 | – | 30.1 | 33.2 | 32.4 | – | – | – | 30.3 | – | – | – | – | – | – | – | – | – | –
23 | CCc1ccc(CCN2CCCCC2)nc1 | > 100 | > 100 | > 100 | > 100 | > 100 | > 100 | > 100 | > 100 | > 100 | – | – | – | – | – | – | – | – | – | – | –
